Assay results: patent US20140161767A1, “FOLLICLE-STIMULATING HORMONE (FSH)/LYTIC DOMAIN FUSION CONSTRUCTS AND METHODS OF MAKING AND USING SAME” (BOARD OF SUPERVISORS OF LOUISIANA STATE UNIVERSITY AND …, priority 2012, published 2014)

Key:
[1] = system: PC-3 xenograft; experiment: PC-3 prostate cancer xenograft, Phor18-LHRH; format: in vivo, mice; details: for Overall efficacy in PC-3 xenografts: mouse, in vivo
Description: PC-3 xenografts untreated cause significant weight loss in mice.
In brief, Nu/Nu male mice, outbred strain, age 6 weeks (Charles River) were injected subcutaneously with a PC-3 cells/Matrigel suspension (1×10^6 cells/mouse). Treatment was started on day 15 after tumor cell injection when the tumors were established and continued on days 22 and 29. The doses for the 3 weekly injections were 2, 0.2 and 0.02 mg/kg body weight, given as a bolus single intravenous injection via lateral tail vein.
A group of 12 tumor bearing mice was sacrificed on day 15 and served as baseline group. All mice were necropsied 35 and 36 days after tumor cell injection. Tumor volumes and bodyweights were recorded twice weekly during the study, as well as overall veterinarian examination of mice was conducted.
Primary tumors, liver, kidney, pancreas, heart, lung, and spleen were collected, fixed in formalin and prepared for histological evaluation. Tumor weights were measured at necropsy, part of the tumors were frozen at 80° C. for LH/CG and LHRH receptor assay determination.

[2] = system: OVCAR-3 xenograft; experiment: OVCAR-3 ovarian cancer xenograft; format: in vivo; details: for Tumor weights at necropsy: Phor18-LHRH: 2 and 0.2 mg/kg vs saline and Phor18, p<0.05; for Tumor volume: during treatment
Description: The xenograft model of the OVCAR-3 human ovarian cancer cell line that present functional LHRH receptors was used in this study. OVCAR-3 represents a slow growing xenograft model and secretes the tumor marker (cancer antigen 125, or CA125). It's secretion can be used as treatment response and is a measure of drug activity.
In brief, Nu/Nu female mice, inbred strain, age 5 weeks (Harlan-Sprague Dawley) were injected subcutaneously with a NIH:OVCAR-3 cells/Matrigel suspension (4.6×10^6 cells/mouse). Treatment was started on day 33 after tumor cell injection when the tumors were established and continued on days 41 and 47. The doses for the 3 weekly injections were 0.02, 0.2 and 2 mg/kg body weight, given as a single bolus intravenous injection via lateral tail vein administered once a week for three weeks on days 33, 41 and 47. Necropsies were conducted on day 52. Data are presented as mean SEM. Arrows show dosing.
A group of 9 tumor bearing mice was sacrificed on day 33 and served as baseline group. All mice were necropsied 51-52 days after tumor cell injection. Tumor volumes and bodyweights were recorded twice weekly during the study, as well as overall veterinarian examination of mice was conducted.
Primary tumors, liver, kidney, pancreas, heart, lung, and spleen were collected, fixed in formalin and prepared for histological evaluation. Tumor weights were measured at necropsy, part of the tumors were frozen at −80° C. for LH/CG and LHRH receptor assay determination.
As a biomarker for drug activity, CA125 was determined in serum, collected from each individual mouse at necropsy using a Enzyme Linked Immunoassay for quantitative determination of ovarian cancer antigen CA125 (Assay kit Genway, Biotech, Inc. San Diego, Calif., Catalog #40-052-115009, # BC-1013 according to the manufacturer).
LHRH receptor levels were assessed from formalin fixed tumors. Quantitative immunoperoxidase image analysis was conducted with the Ventana Image Analysis System (VIAS) adjunctive computer assisted image analysis system functionally connected to an interactive microscope (Axio Imager). The quantitative analysis was conducted with the program for quantification of Her2/neu receptor that included morphometric and colorimetric analysis. Receptor status results were reported as percentage of cells showing positive staining of the LHRH receptors under the following criteria: 0 non-immunoreactive, 1+: 1-25% positive, 2+: 26 50% positive, 3+: 51-75% positive cells.

[3] = system: MDA-MB 435S cells; experiment: In vitro kinetics of cytotoxicity (MTT), MDA-MB-435S cells; format: cell-based, human; details: all cell lines presenting functional LHRH receptors (MDA-MB-435, MCF-7, OVCAR-3)
Text: Membranes of non-cancerous cell lines are neutral and are resistant to cytolytic peptides, in contrast to cancer cell lines, which have a high phosphatidic acid content in their outer membrane.
The breast cancer cell lines studied were MDA-MB-4355 (estrogen receptor alpha negative), MCF-7 and T47D (estrogen receptor alpha positive), ovarian cancer cell lines (OVCAR-3 and SKOV-3), prostate cancer (LNCaP), the non-malignant breast epithelial cell line MCF-10A and the mouse fibroblast cell line NIH:3T3.
Cells were seeded into 96 well plates at a densitiy of 10,000 cells/well. […] Controls contained USP saline or 0.1% TritonX-100™ as reference for 0 and 100% cell death, respectively. […] Cell viability was assessed through formazan conversion assay (MTT assay, (CellTiter 96 Aqueous One, Promega # G3582). Formazan conversion was determined using a BioRad Benchmark Plus microplate spectrophotometer dual wavelengths at 490/630 nm at room temperature).
Data were calculated as fraction of absorption in TritonX-100™ containing wells representing 100% cell death versus 0% cell death in saline containing wells. Cytotoxicity was determined as IC50 using GraphPad Prism version 5.01 for Windows, GraphPad Software, San Diego Calif. […] 4 wells of each individual set of two 96 well plates were compared and analyzed. Statistical analysis for significance was determined by a two-tailed Student's T-test.

[4] = system: MDA-MB-435S xenograft; experiment: MDA-MB-435S xenograft, minimal effective dose, once weekly for 3 weeks; format: in vivo, mice
Description: To determine the minimal effective dose necessary to reduce MDA-MB-435S xenograft weights in a single dose regimen, Nu/Nu female mice, outbred strain, age 5 weeks (Charles River), were injected (s.c.) into the interscapular region with a MDA-MB-435S (passage #249)/Matrigel suspension (2.4×10^6 cells/mouse) [Leuschner 2006].
Each group consisted of 16 mice, which were injected once a week for 3 weeks. A group of 16 mice was sacrificed at the time of treatment start to serve as baseline. Saline injections served as control groups. During the entire study tumor volumes were recorded twice weekly.
Treatment started on day 16 after tumor cell injection when the tumors were established and continued on days 23 and 30. All remaining mice were necropsied 37 days after tumor cell injection.
Treatment response was determined by tumor weights and tumor weight change at necropsy compared to saline controls and untargeted Phor18 treatment. Primary tumors were collected, weighed and prepared for histological evaluation in formalin fixation with […]. Statistical evaluation of data sets were conducted in GraphPad Prizm 4 and significance calculated by Wilcoxon signed-rank test.

Substance: KFAKFAK KFAKFAK KFAK [Phor18]
- Overall efficacy in PC-3 xenografts [1]: ineffective
- Tumor weights at necropsy [2]: not effective
- Tumor volume ([2]; listed as CLIP71): no reduction
- Incubation time to maximum effect [3]: 24 h
- Tumor volumes and tumor weights ([4]; mouse, in vivo): did not decrease tumor weights or destroy tumor tissue

Substance: KFAKFAKKFAKFAKKFAKQHWSYGLRPG [Phor18-LHRH]
- Lowest concentration with tumor volume reduction compared to saline controls and CLIP71 ([1]; 22 days after tumor cell injection, p<0.001): 0.002 mg/kg
- Tumor weights compared to saline controls and CLIP-71 ([1]; all treated groups): significantly reduced
- Tumor volume ([1]; during treatment): decreased
- Overall efficacy in PC-3 xenografts [1]: effective in arresting tumor growth
- Lowest concentration with tumor volume reduction compared to baseline ([2]; 42 days after tumor cell injection, p<0.001): 0.2 mg/kg
- Tumor weights at necropsy [2]: Reduced tumor weights
- Tumor volume [2]: decreased
- Dose with greatest tumor regression compared to treatment start ([2]; p<0.03 vs baseline): 0.2 mg/kg
- Incubation time to maximum effect [3]: 0.5 to 1 h
- Remarks / histological evaluation of tumors ([4]; hematoxylin/eosin): significant necrosis
- Lowest dose with significant necrosis in tumors ([4]; mouse, in vivo): 0.2 µg/kg
